13 compounds from patent publication US5885986A, “Oxazolyl- and thiazolylimidazo-benzo- and thienodiazepines and their use as medicaments” (Hoffmann-La Roche Inc., priority 1994, dated 1999) can be followed below.

Experiment [1] can be described thus: rotating rod test (sedative/muscle relaxant properties). It counts as in vivo, mice. The settings on record: Mus musculus, iv, i.v., read-out: Rotating rod test, ED550. The procedure: The sedative/muscle relaxant properties of the compounds of formula I in accordance with the invention can be determined, for example, in the rotating rod test. Mice weighing 19-21 g are used for this test. They have free access to feed and drinking water up to 1 h before the beginning of the test. They are brought into the test laboratory at least 30 min. before the test. In the rotating rod test the animals are placed on a horizontally arranged, smooth metal rod having a diameter of 3 cm, which is rotated at 2 revolutions per min. Initially, the animals are given the opportunity of familiarizing themselves with the test situation for 30 sec. Subsequently, those animals which succeed in remaining on the rod for at least 1 min. are selected. These animals are then given the test preparations intravenously in different dosages. At various points in time it is then determined whether the animals are able to remain on the rod for a minimum period (minimum period: 10 sec.; from 5 min. after administration: 1 min.). That dosage at which 50% of the animals are capable of remaining on the rod (ED50) is determined.

Experiment [2] concerns the target central benzodiazepine receptors. The experiment can be described thus: inhibition of the binding of tritiated flumazenil to the specific benzodiazepine receptors in the cortex of rats. The settings on record: read-out: Affinity to benzodiazepine receptors IC50. The procedure: The affinity of compounds of general formula I to the central benzodiazepine receptors has been established in vitro according to the methods described in Nature 294, 763-765 (1981) and J. Neurochemistry 37, 714-722 (1981). According to these methods, the inhibition of the binding of tritiated flumazenil to the specific benzodiazepine receptors in the cortex of rats by the respective test substances is determined. The IC50 ("50% inhibiting concentration") denotes that concentration of the respective test substance which brings about a 50 percent inhibition of the specific binding of tritiated flumazenil to the specific benzodiazepine receptors in the cortex of rats.

The mark [3] stands for this setting: 15 s, 15 sec after administration.
The mark [4] stands for this setting: 0.5 min, 30 sec after administration.
Setting [5] is: 1 min, 60 sec after administration.
Where [6] appears, read: 2 min, 2 min after administration.
The mark [7] stands for this setting: 5 min, 5 min after administration.
Setting [8] is: 0.25 h, 15 min after administration.
The mark [9] stands for this setting: 0.5 h, 30 min after administration.
The mark [10] stands for this setting: 1 h, 60 min after administration.

As usually defined, the IC50 is the concentration that inhibits the measured activity by half.

Where two headings read alike, the source gives them in different places. Bounds are passed on as bounds.

For `CCCN(CCC)Cc1cnc(-c2ncn3c2[C@@H]2CCN2C(=O)c2c(Cl)cccc2-3)o1` [A, (S)-8-chloro-1-(5-dipropylaminomethyl-oxazol-2-yl)-12,12a-dihydro-9H,11H-azeto[2,1-c]imidazo[1,5-a][1,4]benzodiazepin-9-one], the ED50 in experiment [1] (setting [3]) is 0.3 mg/kg; in experiment [1] (setting [4]), 0.4 mg/kg; in experiment [1] (setting [5]), 0.6 mg/kg; in experiment [1] (setting [6]), 1.1 mg/kg; in experiment [1] (setting [7]), 1.8 mg/kg; in experiment [1] (setting [8]) it was greater than 10 mg/kg. Further, the ED50 in experiment [1] (setting [9]) and in experiment [1] (setting [10]) was greater than 10 mg/kg each time. Further, the IC50 in experiment [2] was 32 nM.
Consider `CCCN(CCC)Cc1cnc(-c2ncn3c2CN(C)C(=O)c2cc(F)ccc2-3)o1` [B, 3-(5-dipropylaminomethyl-oxazol-2-yl)-8-fluoro-5-methyl-5,6-dihydro-4H-imidazo[1,5-a][1,4]benzodiazepin-6-one], for which the ED50 in experiment [1] (setting [3]) was 0.3 mg/kg; in experiment [1] (setting [4]) it was 0.5 mg/kg; in experiment [1] (setting [5]), 0.7 mg/kg; in experiment [1] (setting [6]), 1.6 mg/kg; in experiment [1] (setting [7]), 2.6 mg/kg; in experiment [1] (setting [8]), 4.9 mg/kg. The ED50 in experiment [1] (setting [9]) and in experiment [1] (setting [10]) was greater than 10 mg/kg throughout. For the same compound, the IC50 in experiment [2] came to 59 nM.
As to `CCCN(CCC)Cc1cnc(-c2ncn3c2CN(C)C(=O)c2c-3ccc(F)c2Cl)o1` [C, 7-chloro-3-(5-dipropylaminomethyl-oxazol-2-yl)-8-fluoro-5-methyl-5,6-dihydro-4H-imidazo[1,5-a][1,4]benzodiazepin-6-one], the ED50 was 0.3 mg/kg in experiment [1] (setting [3]); 0.3 mg/kg in experiment [1] (setting [4]); 0.5 mg/kg in experiment [1] (setting [5]); 0.7 mg/kg in experiment [1] (setting [6]); 1.6 mg/kg in experiment [1] (setting [7]); 2 mg/kg in experiment [1] (setting [8]). Also, the ED50 in experiment [1] (setting [9]) was greater than 10 mg/kg; in experiment [1] (setting [10]), no less than 10 mg/kg. In addition, the IC50 in experiment [2] came to 7 nM.
As for `CCCN(CCC)Cc1cnc(-c2ncn3c2[C@@H]2CCN2C(=O)c2sccc2-3)o1` [D, (S)-1-(5-dipropylaminomethyl-oxazol-2-yl)-11,11a-dihydro-8H,10H-azeto[1,2-a]imidazo[5,1-c]thieno[3,2-e][1,4]diazepin-8-one], the ED50 came out at 0.1 mg/kg in experiment [1] (setting [3]); 0.2 mg/kg in experiment [1] (setting [4]); 0.4 mg/kg in experiment [1] (setting [5]); 0.5 mg/kg in experiment [1] (setting [6]); 1.8 mg/kg in experiment [1] (setting [7]); 3.6 mg/kg in experiment [1] (setting [8]). For the same compound, the ED50 in experiment [1] (setting [9]) and in experiment [1] (setting [10]) was greater than 10 mg/kg each time. In addition, in experiment [2], the IC50 amounted to 7 nM.
Consider `CCCN(CCC)Cc1csc(-c2ncn3c2[C@@H]2CCN2C(=O)c2c(Cl)cccc2-3)n1` [E, (S)-8-chloro-1-(4-dipropylaminomethyl-thiazol-2-yl)-12,12a-dihydro-9H,11H-azeto[2,1-c]imidazo[1,5-a][1,4]benzodiazepin-9-one], for which the ED50 in experiment [1] (setting [3]) was determined as 0.3 mg/kg; in experiment [1] (setting [4]) it was 0.3 mg/kg; in experiment [1] (setting [5]), 0.3 mg/kg; in experiment [1] (setting [6]), 0.9 mg/kg; in experiment [1] (setting [7]), 1 mg/kg; in experiment [1] (setting [8]) it was 3.2 mg/kg. The ED50 is no less than 10 mg/kg in experiment [1] (setting [9]) and greater than 10 mg/kg in experiment [1] (setting [10]). Also, in experiment [2], the IC50 amounted to 11 nM.
Turning to `CCCN(CCC)Cc1cnc(-c2ncn3c2CN(C)C(=O)c2ccccc2-3)o1` [F, 3-(5-dipropylaminomethyl-oxazol-2-yl)-5-methyl-5,6-dihydro-4H-imidazo[1,5-a][1,4]benzodiazepin-6-one], the ED50 was 1.7 mg/kg in experiment [1] (setting [3]); 3.9 mg/kg in experiment [1] (setting [4]); 4.7 mg/kg in experiment [1] (setting [5]); no less than 10 mg/kg in experiment [1] (setting [6]); no less than 10 mg/kg in experiment [1] (setting [7]); greater than 10 mg/kg in experiment [1] (setting [8]). Moreover, the ED50 in experiment [1] (setting [9]) and in experiment [1] (setting [10]) was greater than 10 mg/kg throughout. Besides, the IC50 in experiment [2] turned out to be 66 nM.
`CCCN(CCC)Cc1cnc(-c2ncn3c2CN(C)C(=O)c2c(Cl)cccc2-3)o1` [G, 7-chloro-3-(5-dipropylaminomethyl-oxazol-2-yl)-5-methyl-5,6-dihydro-4H-imidazo[1,5-a][1,4]benzodiazepin-6-one]: the ED50 was 1 mg/kg in experiment [1] (setting [3]); 1.2 mg/kg in experiment [1] (setting [4]); 1.8 mg/kg in experiment [1] (setting [5]); 2.1 mg/kg in experiment [1] (setting [6]); 3 mg/kg in experiment [1] (setting [7]); 3.4 mg/kg in experiment [1] (setting [8]). In addition, the ED50 in experiment [1] (setting [9]) is 5.6 mg/kg; in experiment [1] (setting [10]) it was greater than 10 mg/kg. In experiment [2], the IC50 stood at 4 nM.
In the case of `CCCCN(CCCC)Cc1cnc(-c2ncn3c2CN(C)C(=O)c2cc(F)ccc2-3)o1` [H, 3-(5-dibutylaminomethyl-oxazol-2-yl)-8-fluoro-5-methyl-5,6-dihydro-4H-imidazo[1,5-a][1,4]benzodiazepin-6-one], the ED50 in experiment [1] (setting [3]) is 1.1 mg/kg; in experiment [1] (setting [4]) it was 1.1 mg/kg; in experiment [1] (setting [5]) it was 1.2 mg/kg; in experiment [1] (setting [6]), 2.1 mg/kg; in experiment [1] (setting [7]), 3.4 mg/kg; in experiment [1] (setting [8]), no less than 10 mg/kg. Moreover, the ED50 in experiment [1] (setting [9]) and in experiment [1] (setting [10]) was greater than 10 mg/kg in each case. Also, the IC50 in experiment [2] came to 35 nM.
As to `CCCN(CCC)Cc1cnc(-c2ncn3c2CN(C)C(=O)c2sccc2-3)o1` [I, 3-(5-dipropylaminomethyl-oxazol-2-yl)-5-methyl-5,6-dihydro-4H-imidazo[1,5-a]thieno[2,3-f][1,4]diazepin-6-one], the ED50 is 1.8 mg/kg in experiment [1] (setting [3]); 1.7 mg/kg in experiment [1] (setting [4]); 3.4 mg/kg in experiment [1] (setting [5]); 3.9 mg/kg in experiment [1] (setting [6]); 8.7 mg/kg in experiment [1] (setting [7]); greater than 10 mg/kg in experiment [1] (setting [8]). In addition, the ED50 in experiment [1] (setting [9]) and in experiment [1] (setting [10]) was greater than 10 mg/kg in each case. Moreover, the concentration for half-maximal inhibition (IC50) in experiment [2] is 17 nM.
With `CCCN(CCC)Cc1csc(-c2ncn3c2CN(C)C(=O)c2c(Cl)cccc2-3)n1` [J, 7-chloro-3-(4-dipropylaminomethyl-thiazol-2-yl)-5-methyl-5,6-dihydro-4H-imidazo[1,5-a][1,4]benzodiazepin-6-one], the ED50 in experiment [1] (setting [3]) is 0.7 mg/kg; in experiment [1] (setting [4]), 0.9 mg/kg; in experiment [1] (setting [5]), 2.3 mg/kg; in experiment [1] (setting [6]), no less than 10 mg/kg; in experiment [1] (setting [7]), no less than 10 mg/kg; in experiment [1] (setting [8]) it was greater than 10 mg/kg. Moreover, the ED50 in experiment [1] (setting [9]) and in experiment [1] (setting [10]) was greater than 10 mg/kg each time. Besides, the IC50 in experiment [2] worked out at 5.2 nM.
As for `CCCN(CCC)Cc1csc(-c2ncn3c2[C@@H]2CCCN2C(=O)c2c(Cl)cccc2-3)n1` [K, (S)-8-chloro-1-(4-dipropylaminomethyl-thiazol-2-yl)-11,12,13,13a-tetrahydro-9H-imidazo[1,5-a]pyrrolo[2,1-c][1,4]benzodiazepin-9-one], the ED50 is 1.8 mg/kg in experiment [1] (setting [3]); 1.8 mg/kg in experiment [1] (setting [4]); 5.6 mg/kg in experiment [1] (setting [5]); 3.7 mg/kg in experiment [1] (setting [6]); 5.6 mg/kg in experiment [1] (setting [7]); no less than 10 mg/kg in experiment [1] (setting [8]). The ED50 in experiment [1] (setting [9]) was no less than 10 mg/kg; in experiment [1] (setting [10]), greater than 10 mg/kg. Moreover, the IC50 in experiment [2] was 15 nM.
As for `CCCN(CCC)Cc1csc(-c2ncn3c2CN(C)C(=O)c2c-3ccc(F)c2Cl)n1` [L, 7-chloro-3-(4-dipropylaminomethyl-thiazol-2-yl)-8-fluoro-5-methyl-5,6-dihydro-4H-imidazo[1,5-a][1,4]benzodiazepin-6-one], the ED50 worked out at 1.1 mg/kg in experiment [1] (setting [3]); 1.1 mg/kg in experiment [1] (setting [4]); 1.1 mg/kg in experiment [1] (setting [5]); 2.8 mg/kg in experiment [1] (setting [6]); 4.7 mg/kg in experiment [1] (setting [7]); 5.7 mg/kg in experiment [1] (setting [8]). Also, the ED50 in experiment [1] (setting [9]) is no less than 10 mg/kg; in experiment [1] (setting [10]) it was greater than 10 mg/kg. The IC50 in experiment [2] is 16 nM.
As for `CCCN(CCC)Cc1coc(-c2ncn3c2CN(C)C(=O)c2c(Cl)cccc2-3)n1` [M, 7-chloro-3-(4-dipropylaminomethyl-oxazol-2-yl)-5-methyl-5,6-dihydro-4H-imidazo[1,5-a][1,4]benzodiazepin-6-one], the ED50 in experiment [1] (setting [3]) turned out to be 0.4 mg/kg; in experiment [1] (setting [4]), 1 mg/kg; in experiment [1] (setting [5]) it was 1.2 mg/kg; in experiment [1] (setting [6]) it was 3 mg/kg; in experiment [1] (setting [7]) it was 3.7 mg/kg; in experiment [1] (setting [8]), 8.8 mg/kg. Moreover, the results for the ED50 in experiment [1] (setting [9]) and in experiment [1] (setting [10]) were no less than 10 mg/kg and greater than 10 mg/kg, respectively. Moreover, in experiment [2], the half-maximal inhibitory concentration (IC50) was 15 nM.
